# Measured values from PubChem BioAssay (NCI).
# Where “and” joins values, the source holds several entries; their conditions need not be identical. Equal entries are not always repeated.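 Briefly, cells in 96-well plates were exposed to five compound concentrations for 48 h, and endpoints were estimated by linear interpolation. GI50 = concentration required for 50% inhibition of growth. The concentration for full growth arrest is given as TGI.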
# Columns and labels:
# Test in all cases: NCI-60 cell line screen, 48 h
# [1] = system: A498 renal
# [2] = system: A549 NSCLC
# [3] = system: HL-60(TB) leukemia
# [4] = system: HOP-62 NSCLC
# [5] = system: HOP-92 NSCLC
# [6] = system: PC-3 prostate
# [7] = system: RPMI-8226 leukemia
# [8] = system: SK-MEL-5 melanoma
# [9] = system: SW-620 colon
# [10] = system: UACC-62 melanoma
SMILES,GI50 [1],TGI [1],GI50 [2],TGI [2],GI50 [3],TGI [3],GI50 [4] [µM],TGI [4],GI50 [5] [µM],TGI [5],GI50 [6] [µM],TGI [6],GI50 [7],TGI [7],GI50 [8],TGI [8],GI50 [9],TGI [9],GI50 [10],TGI [10]
Oc1cc(O)c2c(=S)cc(-c3ccc(Cl)cc3)oc2c1,1.22 µM,11.7 µM,6.58 µM,36.8 µM,3.17 µM,22.5 µM,2.03,11.2 µM,1.62,5.11 µM,2.84,12.3 µM,2.82 µM,9.9 µM,1.89 µM,5.04 µM,3.55 µM,16.9 µM,3.01 µM,14.2 µM
C=CCN(/C=C1\C(=O)O[C@H](COC)[C@@]2(C)C1=C(O)C(=O)C1=C2[C@H](OC(C)=O)C[C@]2(C)C(=O)CC[C@@H]12)CC=C,0.0671 µM and 0.049 µM,2.73 µM and 1.26 µM,0.151 µM and 0.361 µM,–,0.21 µM and 0.439 µM,7.46 µM and 11.2 µM,–,20 µM and 71.3 µM,–,20 µM and 4.4 µM,–,> 100 µM,7.91 µM and 1.42 µM,20 µM and 14.1 µM,3.22 µM and 2.18 µM,20 µM and 11.6 µM,6.16 µM and 2.09 µM,20 µM and > 100 µM,0.11 µM and 0.075 µM,1.38 µM and 2.38 µM
CCc1c(Cl)nc(Cl)nc1Cl,–,16.8 µM,–,13.7 µM,–,0.674 µM,–,5.81 µM,–,3 µM,–,4.06 µM,–,0.252 µM,–,1.39 µM,–,1.39 µM,–,2.28 µM
COc1cc([C@@H]2c3cc4c(cc3[C@H](O)[C@H]3COC(=O)[C@H]23)OCO4)cc(OC)c1OC,< 0.01 µM,–,< 0.005 µM,> 100 µM and 50 µM,< 0.01 µM,< 0.005 µM,< 0.005,> 100 µM and 50 µM and > 75 µM,< 0.01,–,< 0.01,> 100 µM and 50 µM,< 0.01 µM,–,–,0.0477 µM,< 0.01 µM,> 100 µM and 50 µM,< 0.01 µM,> 100 µM and 34.7 µM
Clc1ccc(-c2nn3ncccc3c2-c2ccnc(Nc3ccccc3)n2)cc1,4.42 µM,> 23.3 µM,11.3 µM,> 25 µM,11.3 µM,> 25 µM,> 21.4,> 25 µM,2.89,> 21.6 µM,7.3,> 25 µM,11.7 µM,> 25 µM,> 12.4 µM,> 25 µM,12 µM,> 25 µM,> 13 µM,> 25 µM
CC1=C(/C=C/C(C)=C/C=C/C(C)=C/C(=O)Nc2ccc(O)cc2)C(C)(C)CCC1,1.96 µM,9.07 µM and 19.1 µM,2.43 µM,14.2 µM and 26.5 µM,0.278 µM,1.31 µM and 9.51 µM,–,9.95 µM and 15.2 µM,1.77,4.1 µM and 6.11 µM,1.37,4.61 µM and 12.7 µM,1.09 µM,8.9 µM and 9.14 µM,2.1 µM,7.21 µM and 12 µM,–,13.7 µM and 44.5 µM,–,6.94 µM and 7.34 µM
N#CN1CCC[C@H]1C(=O)N1CCc2c(-c3[nH]nc4ncccc34)cccc21,< 0.0114 µM,0.148 µM,0.106 µM,> 25.1 µM,< 0.01 µM,< 0.01 µM,0.0222,10.6 µM,< 0.01,0.0809 µM,< 0.01,23.6 µM,< 0.01 µM,7.47 µM,0.0606 µM,0.126 µM,< 0.01 µM,13.5 µM,< 0.01 µM,12.2 µM
C=C1CCC2C3(C)COC(c4ccc(SC)cc4)OC3CCC2(C)C1C/C=C1/C(=O)OCC1O (configuration not stated),8.64 µM,22.4 µM,5.31 µM,18.4 µM,2.59 µM,7.87 µM,17.3,32.8 µM,5.19,17.1 µM,5.67,20.2 µM,2.64 µM,15.1 µM,6.85 µM,19.4 µM,1.93 µM,3.66 µM,5.45 µM,20.4 µM
O=C1/C(=C/c2ccccc2)CCC/C1=C\c1ccccc1,–,29.8 µM and 29.2 µM,7.66 µM and 17.5 µM,17.8 µM and 45.7 µM and 42.5 µM,10.4 µM and 26.1 µM,36.5 µM and > 53 µM and 90 µM,7.64,13.6 µM and 40 µM and 41.1 µM,6.48,13 µM and 35.2 µM and 37.3 µM,14.3,11 µM and 42.5 µM,2.89 µM and 2.23 µM,36.5 µM and > 20.1 µM and 5.89 µM,6.75 µM and 6.37 µM,12 µM and 26.4 µM and 19.6 µM,6.37 µM and 3.19 µM,11.8 µM and 6.4 µM and 11.2 µM,6.34 µM,11.5 µM and 28.4 µM and 29.9 µM
COC(=O)[C@@]1(C)CC[C@]2(C)CC[C@]3(C)C4=CC=C5C(=CC(=O)C(O)=C5C)[C@]4(C)CC[C@@]3(C)[C@@H]2C1,0.333 µM,0.938 µM,1.21 µM,2.54 µM,0.163 µM,0.684 µM,0.483,1.54 µM,0.163,0.362 µM,0.24,0.573 µM,0.183 µM,0.517 µM,0.2 µM,0.57 µM,0.165 µM,0.414 µM,0.202 µM,0.467 µM
CCC1CC(=O)N(SCC(N)C(=O)O)C1=O (configuration not stated),–,> 100 µM,–,> 100 µM,–,> 100 µM,–,> 100 µM,–,> 100 µM,–,> 100 µM,–,> 100 µM,–,> 100 µM,–,> 100 µM,–,> 100 µM
COc1cc(C2CC(c3cc(C)ccc3C)=NN2c2ccc(S(=O)(=O)NC(=O)NCc3ccccc3)cc2)cc(OC)c1OC (configuration not stated),3.09 µM,9.03 µM,3.31 µM,14.4 µM,3.62 µM,11.4 µM,4.3,37.1 µM,1.96,7.47 µM,2.54,12.3 µM,2.8 µM,9.11 µM,2.04 µM,4.36 µM,3.62 µM,> 100 µM,1.98 µM,4.48 µM
O=C(c1cccs1)c1c(C(F)(F)F)n([O-])c2ccc(F)cc2[n+]1=O,1.95 µM,4.08 µM,2.32 µM,7.02 µM,0.154 µM,0.394 µM,1.58,3.13 µM,0.914,2.48 µM,0.961,2.33 µM,0.188 µM,0.485 µM,1.22 µM,2.51 µM,0.523 µM,2.32 µM,1.41 µM,2.81 µM
CCOC(=O)c1c(C)n2c(=O)cc(C)c3c(OC(C)=O)c(OC(C)=O)cc1c32,14 µM,52.1 µM,5.86 µM,52.3 µM,3.2 µM,12.1 µM,7.05,31.5 µM,4.78,41.5 µM,5.65,> 49.7 µM,2.75 µM,8.33 µM,3.78 µM,13.4 µM,4.03 µM,19.3 µM,4.22 µM,14.4 µM
COC(=O)c1ccc([N+](=O)[O-])c(O)c1,–,> 100 µM,–,> 100 µM,–,> 100 µM,–,> 100 µM,–,> 100 µM,–,> 100 µM,–,> 100 µM,–,> 100 µM,–,> 100 µM,–,> 100 µM
CC1OC(OC2CC(O)C3(CO)C4C(O)CC5(C)C(C6=CC(=O)OC6)CCC5(O)C4CCC3(O)C2)C(O)C(O)C1O (configuration not stated),< 0.0183 µM,0.102 µM,< 0.0109 µM,< 0.0138 µM,–,0.235 µM,< 0.0112,< 0.0146 µM,0.0216,0.0791 µM,< 0.0144,0.0437 µM,0.0167 µM,0.206 µM,< 0.0151 µM,0.0267 µM,0.02 µM,0.702 µM,0.0381 µM,0.173 µM
